Earlier results as cited in patent publication US20070213388A1, “Acetylcholinesterase Inhibitors and N-Methyl-D-Aspartate Antagonists Useful in the Treatment of Cognitive Disorders” (priority 2004, published 2007).

Legend:
[1] = rats, i.v. dosing
AChE = target: T1, AChE (Rattus norvegicus, UniProt P37136); settings: rats, after phenserine administration
T1 construct: from tissue; host or cells: rat
T1 sequence (P37136 32-614): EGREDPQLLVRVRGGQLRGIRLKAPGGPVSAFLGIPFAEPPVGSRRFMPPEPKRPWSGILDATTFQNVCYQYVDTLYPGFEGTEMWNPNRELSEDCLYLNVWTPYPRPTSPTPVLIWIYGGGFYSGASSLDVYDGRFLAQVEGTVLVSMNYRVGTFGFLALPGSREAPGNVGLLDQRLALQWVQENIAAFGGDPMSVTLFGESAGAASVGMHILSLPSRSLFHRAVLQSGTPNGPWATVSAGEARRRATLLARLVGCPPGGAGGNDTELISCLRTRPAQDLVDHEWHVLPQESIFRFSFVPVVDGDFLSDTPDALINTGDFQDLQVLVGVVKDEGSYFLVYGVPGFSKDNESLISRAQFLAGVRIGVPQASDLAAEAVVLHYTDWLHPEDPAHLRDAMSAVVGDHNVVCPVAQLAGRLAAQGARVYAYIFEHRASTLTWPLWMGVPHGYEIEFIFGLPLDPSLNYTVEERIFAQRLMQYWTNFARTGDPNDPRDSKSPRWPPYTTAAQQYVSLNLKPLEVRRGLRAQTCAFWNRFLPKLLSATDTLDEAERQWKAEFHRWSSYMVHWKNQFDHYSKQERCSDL

brain ACh levels = settings: conscious, freely-moving rats, striatal microdialysis
[2] = target: neuronal receptors (NMDA receptor); settings: at -67 mV
[3] = tested on: cytochrome P450 (CYP 450) isoenzymes; settings: in vitro
[4] = not given; remark: listed apart in the source
cholinesterase = settings: see WO 00/248150

In the case of CN1CC[C@]2(C)c3cc(OC(=O)Nc4ccccc4)ccc3N(C)C12 (single isomer, unassigned; (-)) [phenserine, (−)-N-phenylcarbamoyl eseroline], the “brain drug levels relative to plasma” value [1] is given as 10 fold, the “time to peak drug levels” value [1] is given as at most 5 min and the “half-life of brain drug levels” value ([1]; brain) is given as 8.5 min. The “half-life of plasma drug levels” value ([1]; plasma) was 12.6 min, the “inhibition of AChE” value (AChE) was over 70% and the “rise in brain ACh levels” value (brain ACh levels) was “greater than 3 fold”.
In the case of CC12CC3CC(C)(C1)CC(N)(C3)C2.Cl [memantine, 1-amino-3,5-dimethyladamantane hydrochloride], the IC50 [2] is given as 1400 nM, the CSF/serum ratio (crosses the blood brain barrier) is given as 0.52 and the terminal elimination half-life (humans, oral dose) is given as 60 to 80 h. The “inhibition of cytochrome P450 (CYP 450) isoenzymes” value [3] was “does not inhibit” and the water solubility [4] was “water soluble”.
For CN1CC[C@@]2(C)c3cc(OC(=O)Nc4ccccc4)ccc3N(C)C12 (single isomer, unassigned; (+)) [(+)-phenserine], the cholinesterase activity (cholinesterase) is given as “lacks cholinesterase activity”.
